Data taken from US20180289713A1, “COMPOUNDS FOR TREATING AMYOTROPHIC LATERAL SCLEROSIS” (Hoffmann-La Roche Inc., priority 2015, published 2018).

System: SMN protein in SMA patient fibroblast cells
Experiment: SMN protein assay in cultured cells (SMN HTRF)
Format: cell-based, human
Settings: concentration producing 1.5 times SMN protein vs vehicle; SMA patient fibroblasts, 48 hours, 7-point curve
Excerpt: The term “EC1.5× concentration for SMN protein expression” (or “EC1.5× SMN protein”) is defined as that concentration of test compound that is effective in producing 1.5 times the amount of SMN protein in an SMA patient fibroblast cell compared to the amount produced from the vehicle control.
The SMN HTRF (homogeneous time resolved fluorescence) assay is used to quantify the level of SMN protein in SMA patient fibroblast cells treated with test compounds. Materials used and respective sources are listed below in Table 3.
Cells are thawed and cultured in DMEM-10% FBS for 72 hours. Cells are trypsinized, counted and re-suspended to a concentration of 25,000 cells/mL in DMEM-10% FBS. The cell suspensions are plated at 5,000 cells per well in a 96 well microtiter plate and incubated for 3 to […]. Test compounds are serially diluted 3.16-fold in 100% DMSO to generate a 7-point concentration curve. 1 μL of test compound solution is transferred to cell-containing wells and cells are incubated for 48 hours in a cell culture incubator (37° C., 5% CO2, 100% relative humidity). Triplicate samples are set up for each test compound concentration. After 48 hours, the supernatant is removed from the wells and 25 μL of the RIPA lysis buffer, containing protease inhibitors, is added to the wells and incubated with shaking at room temperature for 1 hour. 25 μL of the diluent is added and then 35 μL of the resulting lysate is transferred to a 384-well plate, where each well contains 5 μL of the antibody solution (1:100 dilution of anti-SMN d2 and anti-SMN kryptate in SMN reconstitution buffer). The plate is centrifuged for 1 minute to bring the solution to the bottom of the wells, then incubated overnight at room temperature. Fluorescence for each well of the plate at 665 nm and 620 nm is measured on an EnVision multilabel plate reader (Perkin-Elmer).
The normalized fluorescence signal is calculated for each sample, Blank and vehicle control well by dividing the signal at 665 nm by the signal at 620 nm. Normalizing the signal accounts for possible fluorescence quenching due to the matrix effect of the lysate. The ΔF value (a measurement of SMN protein abundance as a percent value) for each sample well is calculated by subtracting the normalized average fluorescence for the Blank control wells from the normalized fluorescence for each sample well, then dividing this difference by the normalized average fluorescence for the Blank control wells and multiplying the resulting value by 100. The ΔF value for each sample well represents the SMN protein abundance from test compound-treated samples. The ΔF value for each sample well is divided by the ΔF value for the vehicle control wells to calculate the fold increase in SMN protein abundance relative to the vehicle control. Table 4 provides EC1.5× concentrations for SMN protein expression that was obtained from the 7-point concentration data generated according to the above procedure for particular compounds of the present invention.
Table 5 provides the maximum fold increase of SMN protein that was obtained from the 7-point concentration data generated according to the above procedure for particular compounds of the present invention

Cc1cn2nc(-c3cc(=O)n4cc(N5CCN6CCC[C@@]6(C)C5)ccc4n3)cc(C)c2n1 [Example 5, 7-[(8aS)-8a-methyl-1,3,4,6,7,8-hexahydropyrrolo[1,2-a]pyrazin-2-yl]-2-(2,8-dimethylimidazo[1,2-b]pyridazin-6-yl)pyrido[1,2-a]pyrimidin-4-one]
EC1.5x SMN protein: 4.1 nM

Cc1cn2nc(-c3cc(=O)n4cc(N5CCN6CCC[C@]6(C)C5)ccc4n3)cc(C)c2n1 [Example 6, 7-[(8aR)-8a-methyl-1,3,4,6,7,8-hexahydropyrrolo[1,2-a]pyrazin-2-yl]-2-(2,8-dimethylimidazo[1,2-b]pyridazin-6-yl)pyrido[1,2-a]pyrimidin-4-one]
EC1.5x SMN protein: 11 nM

Cc1cn2nc(-c3cc(=O)n4cc(N5CCN[C@@H](C)C5)ccc4n3)cc(C)c2n1 [Example 8, 2-(2,8-dimethylimidazo[1,2-b]pyridazin-6-yl)-7-[(3S)-3-methylpiperazin-1-yl]pyrido[1,2-a]pyrimidin-4-one]
EC1.5x SMN protein: 5.9 nM

Cc1cn2nc(-c3cc(=O)n4cc(N5CCN[C@H](C)C5)ccc4n3)cc(C)c2n1 [Example 9, 2-(2,8-dimethylimidazo[1,2-b]pyridazin-6-yl)-7-[(3R)-3-methylpiperazin-1-yl]pyrido[1,2-a]pyrimidin-4-one]
EC1.5x SMN protein: 2.5 nM

Cc1cn2nc(-c3cc(=O)n4cc(N5CCN[C@@H](C)C5)ccc4n3)ccc2n1 [Example 11, 2-(2-methylimidazo[1,2-b]pyridazin-6-yl)-7-[(3S)-3-methylpiperazin-1-yl]pyrido[1,2-a]pyrimidin-4-one]
EC1.5x SMN protein: 7 nM

Cc1cn2nc(-c3cc(=O)n4cc(N5CCN[C@H](C)C5)ccc4n3)ccc2n1 [Example 12, 2-(2-methylimidazo[1,2-b]pyridazin-6-yl)-7-[(3R)-3-methylpiperazin-1-yl]pyrido[1,2-a]pyrimidin-4-one]
EC1.5x SMN protein: 7.5 nM

Cc1cn2nc(-c3cc(=O)n4cc(N5CCCNCC5)ccc4n3)ccc2n1 [Example 13, 7-(1,4-diazepan-1-yl)-2-(2-methylimidazo[1,2-b]pyridazin-6-yl)pyrido[1,2-a]pyrimidin-4-one]
EC1.5x SMN protein: 3 nM

Cc1cn2nc(-c3cc(=O)n4cc(N5CCN6CCC[C@@]6(C)C5)ccc4n3)ccc2n1 [Example 16, 7-[(8aS)-8a-methyl-1,3,4,6,7,8-hexahydropyrrolo[1,2-a]pyrazin-2-yl]-2-(2-methylimidazo[1,2-b]pyridazin-6-yl)pyrido[1,2-a]pyrimidin-4-one]
EC1.5x SMN protein: 3 nM

Cc1cn2nc(-c3cc(=O)n4cc(N5CC[C@@H](N6CCCC6)C5)ccc4n3)cc(C)c2n1 [Example 18, 2-(2,8-dimethylimidazo[1,2-b]pyridazin-6-yl)-7-[(3R)-3-pyrrolidin-1-ylpyrrolidin-1-yl]pyrido[1,2-a]pyrimidin-4-one]
EC1.5x SMN protein: 25 nM

Cc1cn2nc(-c3cc(=O)n4cc(N5CCNC6(CC6)C5)ccc4n3)cc(C)c2n1 [Example 20, 7-(4,7-diazaspiro[2.5]octan-7-yl)-2-(2,8-dimethylimidazo[1,2-b]pyridazin-6-yl)pyrido[1,2-a]pyrimidin-4-one]
EC1.5x SMN protein: 37 nM

Cc1cn2nc(-c3cc(=O)n4cc(N5CCN[C@@H](C)C5)cc(C)c4n3)cc(C)c2n1 [Example 24, 2-(2,8-dimethylimidazo[1,2-b]pyridazin-6-yl)-9-methyl-7-[(3S)-3-methylpiperazin-1-yl]pyrido[1,2-a]pyrimidin-4-one]
EC1.5x SMN protein: 4.7 nM

Cc1cn2nc(-c3cc(=O)n4cc(N5C[C@H](C)N[C@@H](C)C5)ccc4n3)cc(C)c2n1 [Example 29, 2-(2,8-dimethylimidazo[1,2-b]pyridazin-6-yl)-7-[(3S,5S)-3,5-dimethylpiperazin-1-yl]pyrido[1,2-a]pyrimidin-4-one]
EC1.5x SMN protein: 2.1 nM

Cc1cn2nc(-c3cc(=O)n4cc(N5C[C@H](C)N[C@@H](C)C5)ccc4n3)ccc2n1 [Example 32, 7-[(3S,5S)-3,5-dimethylpiperazin-1-yl]-2-(2-methylimidazo[1,2-b]pyridazin-6-yl)pyrido[1,2-a]pyrimidin-4-one]
EC1.5x SMN protein: 4 nM

Cc1cn2nc(-c3cc(=O)n4cc(N5CCN[C@@H](C)C5)cc(C)c4n3)ccc2n1 [Example 33, 9-methyl-2-(2-methylimidazo[1,2-b]pyridazin-6-yl)-7-[(3S)-3-methylpiperazin-1-yl]pyrido[1,2-a]pyrimidin-4-one]
EC1.5x SMN protein: 4 nM

Cc1cn2nc(-c3cc(=O)n4cc(N5CCN[C@H](C)C5)cc(C)c4n3)ccc2n1 [Example 34, 9-methyl-2-(2-methylimidazo[1,2-b]pyridazin-6-yl)-7-[(3R)-3-methylpiperazin-1-yl]pyrido[1,2-a]pyrimidin-4-one]
EC1.5x SMN protein: 4.4 nM

Cc1cn2nc(-c3cc(=O)n4cc(N5CCNC6(CC6)C5)cc(C)c4n3)ccc2n1 [Example 37, 7-(4,7-diazaspiro[2.5]octan-7-yl)-9-methyl-2-(2-methylimidazo[1,2-b]ipyridazin-6-yl)pyrido[1,2-a]pyrimidin-4-one]
EC1.5x SMN protein: 45 nM

Cc1cn2nc(-c3cc(=O)n4cc(N5C[C@H](C)N[C@@H](C)C5)cc(C)c4n3)ccc2n1 [Example 38, 7-[(3S,5S)-3,5-dimethylpiperazin-1-yl]-9-methyl-2-(2-methylimidazo[1,2-b]pyridazin-6-yl)pyrido[1,2-a]pyrimidin-4-one]
EC1.5x SMN protein: 3.1 nM
